In patent US5840936A, “Aminosterol compounds useful as inhibitors of the sodium/proton exchanger (NHE)” (priority 1995, dated 1998):
“Also recorded” adds a separate entry of the source.

Tests used:
B16 melanoma = assay: Suppression of B16 melanoma growth in C57B mice; format: in vivo, mouse
Experimental: The growth of B16 melanoma in C57B mice is dependent upon neovascularization.
Using the growth of B16 melanoma cells in C57B mice, a recognized model for the evaluation of inhibitors of angiogenesis on the growth of cancers, the effects of subcutaneous, intraperitoneal and oral administration of squalamine were evaluated.
Animals were implanted with B16 melanoma followed by treatment with compound 1436 or 1256 administered in a combined schedule or separately. […] Thus, a combination of these two compounds achieves a theraputic benefit in tumors dependent on neovascularization that may prevent metastatic spread.

[1] = test system: chick embryo vitelline capillaries; assay: Chick embryo vitelline capillary regression assay; format: in vivo; parameters: key to Vitelline capillary regression: +: Vascular reactivity; 0: No vascular reactivity; +/-: Equivocal reactivity
Experimental: Using the chick embryo vitelline capillaries assay, compounds were tested for their ability to induce capillary regression. Each compound was applied in 0.1 ml of 15% Ficol 400 and PBS onto the embryo, and vascular regression was assessed after 60 minutes.
The 3-day chick embryo consists of an embryonic disc from which numerous vessels emerge and return, forming a "FIG. 8"-shaped structure--the embryo in the center with vascular loops extending outward over both poles. […] Following a lag period of around 15 minutes, the constriction of continuity between capillary and secondary vessels, generally on the "venous" side, was observed. Continued pulsatile blood flow progressed, resulting in a "swelling" of the blind tube, followed by a pinching off of the remaining connection and formation of an enclosed vascular sac resembling a "blood island." This process progressed until only the largest vessels remained intact.

[2] = test system: Xenopus tadpoles, stage 59-60; assay: Xenopus tadpole assay; settings: 10 μg/ml
Mouse IV PK study = settings: in vivo
Experimental: To assess clearance, a mouse IV PK study was performed for compound 319 and squalamine. The compound was administered i.v. and blood samples were taken every 10 minutes. The concentration of the administered steroid was determined by HPLC analysis.

rabbit NHE3 = rabbit NHE3 (Oryctolagus cuniculus, UniProt P26432); assay: NHE3 inhibition, internal pH (BCECF-AM) in transfected PS120 fibroblasts
Chain of rabbit NHE3 (P26432 30-832): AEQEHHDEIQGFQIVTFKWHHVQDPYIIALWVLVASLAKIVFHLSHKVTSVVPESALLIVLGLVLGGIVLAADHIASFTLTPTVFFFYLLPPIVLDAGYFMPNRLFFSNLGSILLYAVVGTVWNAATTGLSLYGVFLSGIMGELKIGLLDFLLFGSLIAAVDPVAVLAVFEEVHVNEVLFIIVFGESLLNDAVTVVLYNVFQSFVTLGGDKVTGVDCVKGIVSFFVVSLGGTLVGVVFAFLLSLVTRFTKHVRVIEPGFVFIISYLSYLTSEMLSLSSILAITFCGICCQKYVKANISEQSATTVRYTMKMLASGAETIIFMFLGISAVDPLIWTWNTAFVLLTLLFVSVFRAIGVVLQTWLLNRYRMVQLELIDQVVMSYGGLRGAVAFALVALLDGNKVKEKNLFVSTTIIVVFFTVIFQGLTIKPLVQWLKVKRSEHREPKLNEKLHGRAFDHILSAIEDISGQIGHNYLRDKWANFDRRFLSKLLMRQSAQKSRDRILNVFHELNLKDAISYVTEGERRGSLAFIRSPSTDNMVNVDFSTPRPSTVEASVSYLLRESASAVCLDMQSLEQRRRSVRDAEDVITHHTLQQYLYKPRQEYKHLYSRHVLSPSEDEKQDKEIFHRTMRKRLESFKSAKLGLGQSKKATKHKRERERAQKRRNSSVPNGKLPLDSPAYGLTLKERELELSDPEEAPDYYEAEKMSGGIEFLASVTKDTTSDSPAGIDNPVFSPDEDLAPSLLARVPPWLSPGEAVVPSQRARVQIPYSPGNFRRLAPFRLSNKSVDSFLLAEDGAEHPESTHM
Experimental: Internal pH was measured either following acid loading or in the absence of an acid-loading challenge, with the results shown in FIGS. 1A and 1B.
Specifically, PS120 fibroblasts transfected with rabbit NHE3 were grown in supplemented Dulbecco's-modified Eagle's medium as described by Levine et al., J. Biol. Chem. 268, 1993, 25527-25535. […] For cells not acid-preloaded, the actual internal pH value was monitored as a function of time following addition of squalamine, with the results depicted in FIG. 1B.
PS120 fibroblasts transfected with rabbit NHE3 were grown and acid preloaded by exposure to 40 mM NH4 Cl as described above in conjunction with FIGS. 1A and 1B. Internal cellular pH changes expressed as the rate of pH recovery as a function of restored extracellular sodium ion concentration following exposure to 10 μg/ml of the compound were assayed with the fluorescent dye BCECF-AM as described above.

human NHE1 = assay: NHE1 inhibition, internal pH in PS120 fibroblasts expressing human NHE1; format: cell-based; settings: 5 μg/ml squalamine, acid-preloaded
Experimental: (§1) PS120 fibroblasts transfected with rabbit or human NHEl were grown as described above.

human melanoma 1205Lu = assay: Suppression of human melanoma in RAG-1 mice; format: in vivo
Description: As apparent from FIG. 5, melanoma 120SLu develops aggressively in RAG-1 mice after implantation.

[3] = test system: human microvascular cells; assay: Inhibition of endothelial cell cord formation in vitro; format: cell-based; settings: concentrations inhibiting cord formation
Description: Endothelial cells have the capacity in vitro to form tubular aggregates resembling capillaries in various early stages of formation. This conversion occurs under relatively specific conditions, in which essential growth factors along with an effective substratum are provided. It has been shown that both the interaction of growth factors with the endothelial cell and its attachment to a substratum activate the NHE. The activation of this exchanger is believed to be required for subsequent morphologic transformation of the endothelial cell into a multicellular tubular structure.
To assess the effect of compounds on the cord-like structures formed by human microvascular cells when plated in the presence of VEGF (Vascular Endothelial Growth Factor) and basic fibroblast growth factor on a collagen matrix, a standard cord formation assay was used.

[4] = test system: human umbilical venous endothelial cells; assay: LPS-induced neutrophil adherence to human umbilical venous endothelial cells; settings: 10 μg, 1.0 μg, or 0.1 μg; LPS or TNF-α
Experimental: In these experiments, approximately 2×10^5 human umbilical venous cells (passage 2-6) were plated per well. The cells were grown in serum-free media overnight. For induction, either TNF-α (40 ng/ml) was added to endothelial cells for 6 hours prior to adding neutrophils or LPS (100 ng/ml) was added for 4-6 hours. […] After activation of the endothelial cells, approximately 50×10^6 neutrophils were added per well. The plates were gently rocked for 30 minutes at room temperature, followed by removal of the media and washing in serum-free media three times and then photographing of each well. […] A monoclonal Ab to ICAM-1 was a positive control.

ELC = ELC MTT; format: cell-based; settings: Table II; read-out: ELC MTT, Minimum Effective Concentration
[5] = test system: human coronary artery smooth muscle; assay: Growth of human coronary artery smooth muscle in vitro; format: cell-based; settings: in vitro
Description: Aminosterols of the invention may also have utility in inhibiting the growth factor mediated proliferation of smooth muscle within the artery. Following coronary angioplasty, reocclusion commonly occurs, secondary to reparative proliferation of the vascular smooth muscle within the wall of the surgically manipulated blood vessel. This process generally takes place over the course of 7-10 days. To evaluate whether an agent could prevent the growth factor mediated proliferation of smooth muscle within the artery, compound 1436 was evaluated in vitro for its effect on the proliferation of human coronary artery smooth muscle. Results for compound 1436 are shown in FIG. 13, and those for squalamine are shown in FIG. 14, with FIG. 15 being a composite logarithmic plot.

[6] = test system: chick chorioallantoic membrane capillaries; assay: Chorioallantoic membrane (CAM) model, inhibition of capillary growth; format: in vivo; settings: for Percentage positive, Assay 1 / Percentage positive, Assay 2 / Percentage positive, Mean: 3-day embryo
Description: The growing capillaries within the chorioallantoic membrane model (CAM model) have been used as a system in which to evaluate the effect of agents on their potential to inhibit new vessel growth. Neovascularization occurs most aggressively over the first week of embryonic development. Thereafter capillary growth is characterized by principally "elongation" rather than "de novo" formation.
In the standard assay, agents are applied locally to a region of the embryo over which neovascularization will occur. Agents are assessed by their ability to inhibit this process, as evaluated by visual examination about 7 days after application. […] The assay utilized is described in detail in Auerbach et al., Pharm. Ther. 51, 1991, 1-11.

[7] = test system: Xenopus tadpoles, stage 59-60; settings: 10 μg/mL
[8] = test system: human foreskin fibroblasts; assay: Growth inhibition of fibroblasts in vitro; format: cell-based; settings: 10 μg/ml
[9] = Fasting blood glucose in mice; format: in vivo, male CD-1 mice; settings: total dose 20 mg/kg i.v. (2 × 10 mg/kg), 30 min. after 2d dose
Experimental: To study the effect of steroid administrator or the NHE responsible for secretion of insulin, several of the aminosterols from shark liver were administered to fasting mice. Male CD-1 mice were assigned to one of four treatment groups. Whole blood glucose was tested using glucometer (Lifescan Glucometer II and One Touch test strips). Statistical analysis was via one-way analysis of variance (ANOVA) followed by subsequent Bonferonni's t-test.

[10] = test system: human epithelial cell line MCF 10A; assay: Growth inhibition of epithelial cells in vitro; format: cell-based; settings: 10 μg/ml
rabbit NHE1 = assay: NHE1 inhibition, internal pH in PS120 fibroblasts expressing rabbit NHE1; format: cell-based; settings: 5 μg/ml squalamine, acid-preloaded
Experimental: as §1

[11] = test system: bovine pulmonary endothelial cells; assay: Growth inhibition of endothelial cells in vitro; format: cell-based; settings: 1 μg/ml
[12] = 20 μg applied, some vascular irritation noted
[13] = 40 μg applied, some vascular irritation noted

## C[C@H](CCC(=O)O)[C@H]1CC[C@H]2[C@@H]3CC[C@H]4C[C@@H](NCCCNCCCCN)CC[C@]4(C)[C@H]3CC[C@]12C [Compound 319]
B16 melanoma; compound 319, subcutaneous, intraperitoneal (FIG. 6 legend)
  Control of B16 in C57B mice: control of B16 in C57B mice to an extent almost comparable to squalamine
[1]; 0.001 μg applied
  Vitelline capillary regression: +/-
[1]; 0.01 μg applied
  Vitelline capillary regression: +
[1]; 0.1 μg applied
  Vitelline capillary regression: +
[1]; 1 μg applied
  Vitelline capillary regression: +
[1]; 10 μg applied
  Vitelline capillary regression: +
[2]
  Tadpole assay, observed effects: common vascular occlusive effect
Mouse IV PK study
  half-life: about 14 minute
Rabbit NHE3
  Potency as an NHE inhibitor compared with squalamine: superior to squalamine

## CC(C)[C@@H](CC[C@@H](C)[C@H]1CC[C@H]2[C@@H]3[C@H](O)C[C@H]4C[C@@H](NCCCNCCCCN)CC[C@]4(C)[C@H]3CC[C@]12C)OS(=O)(=O)O [Compound 1256]
Human NHE1
  Inhibition of human NHE1: no inhibitory activity; also recorded: lack of inhibition of human NHE1
Human melanoma 1205Lu
  Tumor growth after cessation of treatment: tumor growth continued at a rate similar to untreated controls
Human melanoma 1205Lu; 10, 20, 40 mg/kg/d, listed as Squalamine
  Suppression of growth of melanoma 1205Lu: suppress the growth of melanoma 1205Lu in RAG-1 mice in a dose-dependent fashion; also recorded: clear suppression of tumor growth in a dose-dependent fashion
B16 melanoma; squalamine
  Body weight and hematologic parameters: no significant depression
B16 melanoma; squalamine 5 mg/kg/day
  Impact on tumor volume: no significant impact on tumor volume
B16 melanoma; squalamine 15 mg/kg/day, compound 1436 alone in a tolerable schedule
  Tumor growth effect of single agent compared with combination: Neither administration of squalamine at 15 mg/kg/day nor compound 1436 alone in a tolerable schedule could achieve this effect
B16 melanoma; squalamine, subcutaneous, intraperitoneal or oral
  Suppression of tumor volume: dose-dependent suppression of tumor volume
[3]
  Effect on cell viability or proliferation: does not appear to profoundly affect cell viability or proliferation
[4]
  Inhibition of neutrophil adherence: no inhibition
[1]; 0.001 μg applied
  Vitelline capillary regression: 0
[1]; 0.01 μg applied
  Vitelline capillary regression: +
[1]; 0.1 μg applied
  Vitelline capillary regression: +
[1]; 1 μg applied
  Vitelline capillary regression: +
[1]; 10 μg applied
  Vitelline capillary regression: +
[1]; 0.1 ml in 15% Ficol in PBS, listed as Squalamine
  Hemorrhage / hemolysis in chick embryo: No hemorrhage was seen; also recorded: absence of hemolysis
[1]; 3- to 5-day chick embryo
  Effect on chick embryo vessels: disrupt vitelline capillaries in 3- to 5-day chick embryos
[1]; Table II
  Chick embryo diss. assay, Minimum Effective Concentration: 0.01 µg
ELC
  minimal effective concentration: 13.2 µg/mL
[5]
  Suppression of growth of human coronary artery smooth muscle: suppress in vitro the growth of human coronary artery smooth muscle
[6]; 3-day CAM, 0.65 μg
  Inhibition of CAM vessel neovascularization: inhibition of CAM vessel neovascularization
[6]; 0.65 μg applied
  Percentage positive, Assay 1: 28%
[6]; 1.25 μg applied
  Percentage positive, Assay 1: 18%
  Percentage positive, Assay 2: 18%
  Percentage positive, Mean: 18%
[6]; 2.5 μg applied
  Percentage positive, Assay 1: 35%
  Percentage positive, Assay 2: 18%
  Percentage positive, Mean: 27%
[6]; 5.0 μg applied
  Percentage positive, Assay 1: 91%
  Percentage positive, Assay 2: 57%
  Percentage positive, Mean: 74%
[6]; 20 μg applied
  Percentage positive, Mean: 55%
[6]; [12]
  Percentage positive, Assay 1: 52%
  Percentage positive, Assay 2: 58%
[6]; 40 μg applied
  Percentage positive, Mean: 32%
[6]; [13]
  Percentage positive, Assay 1: 50%
  Percentage positive, Assay 2: 13%
[6]; 13-day embryo, 5.0 μg applied
  Percentage positive: 0/26
[6]; 13-day old chick, ten times that amount
  Inhibition of CAM vessel neovascularization: no inhibitory effect
[7]
  Tadpole E (epithelial): -
  Tadpole GI (gastrointestinal): -
  Tadpole M (melanocytes): -
  Tadpole Mus (muscle): -
  Tadpole V (vascular): +
[8]
  Growth inhibition of fibroblasts: no effect
[9]
  Fasting Blood Glucose Mean ± SEM: 65 ± 7.3 mg/dL
[2]
  Tadpole assay, observed effects: Vascular occlusion in fine capillaries of tail; also recorded: No effect on vascular flow through hands or feet
  Tadpole time to death: ≤ 2 h
[2]; listed as squalamine
  Tadpole assay, observed effects: blood flow through the capillaries of the tail shut down; also recorded: unaltered blood flow through the fine capillaries of the hands and feet; also recorded: common vascular occlusive effect
[10]
  Growth inhibition of epithelial cells: no effect
Rabbit NHE1
  Inhibition of rabbit NHE1: no inhibitory activity; also recorded: lack of inhibition of rabbit sodium/proton exchanger isoform 1 (NHE1)
[11]
  Growth inhibition of bovine pulmonary endothelial cells (BPE): inhibited the growth of bovine pulmonary artery endothelial cells (BPE)
Rabbit NHE3; 5 μg/ml squalamine, acid-preloaded and not acid-preloaded cells
  Inhibition of NHE3: inhibited NHE3 with respect to proton concentration at both Km and Vmax levels
Rabbit NHE3; 5 μg/ml, not acid-preloaded
  Effect on resting pH: causes the cell to drop to a lower pH in its presence before activation of the pump occurs
Rabbit NHE3; NHE3 vs NHE1, listed as squalamine
  NHE isoform specificity: inhibits NHE3, but not NHE1; also recorded: specificity for NHE3 over NHE1
